The test has as its target T1, Tyro-3 (h) (Homo sapiens, UniProt Q06418).
T1 construct: purchased
T1 sequence (Q06418 41-890): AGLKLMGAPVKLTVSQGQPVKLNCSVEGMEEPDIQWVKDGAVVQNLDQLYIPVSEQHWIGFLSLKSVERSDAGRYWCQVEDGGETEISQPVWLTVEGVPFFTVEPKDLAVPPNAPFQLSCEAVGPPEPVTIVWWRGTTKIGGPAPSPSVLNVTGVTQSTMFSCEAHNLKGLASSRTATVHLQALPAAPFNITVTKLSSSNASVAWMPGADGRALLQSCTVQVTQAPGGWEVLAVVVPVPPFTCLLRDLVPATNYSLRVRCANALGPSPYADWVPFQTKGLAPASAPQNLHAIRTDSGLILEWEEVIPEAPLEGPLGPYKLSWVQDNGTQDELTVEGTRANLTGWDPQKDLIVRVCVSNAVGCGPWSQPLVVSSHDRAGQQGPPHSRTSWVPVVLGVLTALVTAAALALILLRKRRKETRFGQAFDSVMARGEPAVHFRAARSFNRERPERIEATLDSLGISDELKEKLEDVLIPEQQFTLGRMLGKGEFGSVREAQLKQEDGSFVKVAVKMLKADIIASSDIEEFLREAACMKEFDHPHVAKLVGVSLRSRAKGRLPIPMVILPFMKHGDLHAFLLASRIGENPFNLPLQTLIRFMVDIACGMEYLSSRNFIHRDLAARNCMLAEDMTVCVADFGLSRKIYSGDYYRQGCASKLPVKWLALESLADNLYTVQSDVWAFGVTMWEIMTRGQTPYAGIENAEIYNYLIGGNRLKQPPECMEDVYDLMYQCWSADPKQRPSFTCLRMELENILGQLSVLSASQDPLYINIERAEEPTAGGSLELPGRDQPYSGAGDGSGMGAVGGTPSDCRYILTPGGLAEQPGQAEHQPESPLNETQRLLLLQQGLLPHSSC
As to the kind of experiment: Enzymatic activity test, Tyro-3 (h). Format: biochemical. To be noted: 10 μM [γ-33P]-ATP, 40 minutes, room temperature. Here is the method:
Assay 3: Enzymatic Activity Test of the Compounds of the Present Invention
Test substances: the compounds of the present invention, wherein the structures and preparations thereof were as described above.
(1) Preparation of the Compound Stock Solution
The compound was dissolved in 100% DMSO to prepare a stock solution with a maximum concentration of 500 μM.
(2) Preparation of the Compound Working Solution
The compound stock solution was diluted to final concentrations of 500, 150, 50, 15, 5, 1.5, 0.5, 0.15 and 0.05 μM to become the compound working solutions (50×).
(3) Preparation of Different Enzyme Reaction Solutions
The Tyro3 (h) enzyme was dissolved in 8 mM MOPS (pH 7.0), 0.2 mM EDTA, 1 mM MnCl2, and 250 μM KVEKIGEGTYGVVYK to prepare an enzyme solution having a final concentration of 38 nM. The enzymatic reaction was activated by using 10 mM magnesium acetate and 10 μM [γ-^33P]-ATP to form an Mg/ATP mixed solution.
In a 384-well plate, the compound working solution was added to final concentrations of 10000, 3000, 1000, 300, 100, 30, 10, 3, and 1 nM. Then different enzyme reaction solutions prepared according to the above conditions were added. The incubation was carried out for 40 minutes at room temperature. The test was terminated by the addition of a 0.5% phosphoric acid solution. 10 μL of the reaction solution was taken and dropped to the P30 filter paper. The filter paper was washed 4 times with 0.425% phosphoric acid solution and once with methanol, and then placed on a scintillation counter. The […] IC50 values were calculated using GraphPad 5.0 software.

For `COc1cc2nccc(Oc3ccc(NC(=O)c4nn(C(C)C)cc(-c5ccc(F)cc5)c4=O)nc3)c2cc1OC` [Compound 15, N-(5-((6,7-dimethoxyquinolin-4-yl)oxy)pyridin-2-yl)-5-(4-fluorophenyl)-1-isopropyl-4-oxo-1,4-dihydropyridazine-3-carboxamide], the IC50 (in general, the point on the concentration scale where inhibition reaches its midpoint) is 13 nM.

`COc1cc2nccc(Oc3cnc(NC(=O)c4nn(C(C)C)cc(-c5ccc(F)cc5)c4=O)nc3)c2cc1OC` [Compound 16, N-(5-((6,7-dimethoxyquinolin-4-yl)oxy)pyrimidine-2-yl)-5-(4-fluorophenyl)-1-isopropyl-4-oxo-1,4-dihydropyridazine-3-carboxamide]: the IC50 came to 12 nM. `COc1cc2nccc(Oc3ccc(NC(=O)c4cn(C5CC5)cc(-c5ccc(F)cc5)c4=O)nc3)c2cc1OC` [Compound 30, N-(5-((6,7-dimethoxyquinolin-4-yl)oxy)pyridin-2-yl)-1-cyclopropyl-4-oxo-5-para-fluorophenyl-1,4-hydropyridin-3-carboxamide] showed an IC50 of 16 nM. Take `COc1cc2nccc(Oc3ccc(NC(=O)c4cn(C(C)C)cc(-c5ccc(F)cc5)c4=O)nc3)c2cc1OC` [Compound 14, N-(5-((6,7-dimethoxyquinolin-4-yl)oxy)pyridin-2-yl)-5-(4-fluorophenyl)-1-isopropyl-4-oxo-1,4-dihydropyridin-3-carboxamide]: the IC50 was 21 nM. In the case of `COc1cc2nccc(Oc3cnc(NC(=O)c4cn(C5CC5)cc(-c5ccc(F)cc5)c4=O)nc3)c2cc1OC` [Compound 32, 1-cyclopropyl-N-(5-((6,7-dimethoxyquinolin-4-yl)oxy)pyrimidine-2-yl)-5-(4-fluorophenyl)-4-oxo-1,4-dihydropyridin-3-carboxamide] it was 11 nM; in that of `COc1cc2nccc(Oc3ncc(NC(=O)c4nn(C(C)C)cc(-c5ccc(F)cc5)c4=O)cn3)c2cc1OC` [Compound 34, N-(2-((6,7-dimethoxyquinolin-4-yl)oxy)pyrimidine-5-yl)-5-para-fluorophenyl-1-isopropyl-4-oxo-1,4-dihydropyridazine-3-carboxamide], 7 nM. For the compound `COc1cc2nccc(Oc3cnc(NC(=O)c4nn(C5CC5)cc(-c5ccc(F)cc5)c4=O)nc3)c2cc1OC` [Compound 33], it took 8 nM to reach half-maximal inhibition (IC50). In turn, `COc1cc2nccc(Oc3ncc(NC(=O)c4cn(C(C)C)nc(-c5ccc(F)cc5)c4=O)cn3)c2cc1OC` [Compound 40, N-(2-((6,7-dimethoxyquinolin-4-yl)oxy)pyrimidine-5-yl)-6-(4-fluorophenyl)-2-isopropyl-5-oxo-2,5-dihydropyridazine-4-carboxamide] came in with an IC50 of 143 nM.

On to `COc1cc2nccc(Oc3ccc(NC(=O)c4cn(C(C)C)nc(-c5ccc(F)cc5)c4=O)nc3)c2cc1OC` [Compound 41, N-(5-((6,7-dimethoxyquinolin-4-yl)oxy)pyridin-2-yl)-6-(4-fluorophenyl)-2-isopropyl-5-oxo-2,5-dihydropyridazine-4-carboxamide], for which the concentration for half-maximal inhibition (IC50) stood at 65 nM. The same measure for `COc1cc2nccc(Oc3ncc(NC(=O)c4nn(C5CC5)cc(-c5ccc(F)cc5)c4=O)cn3)c2cc1OC` [Compound 37, 1-cyclopropyl-N-(2-((6,7-dimethoxyquinolin-4-yl)oxy)pyrimidine-5-yl)-5-para-fluorophenyl-4-oxo-1,4-dihydropyridazine-3-carboxamide]: 12 nM. For `COc1cc2nccc(Oc3ccc(NC(=O)c4nn(C(C)C)cc(-c5ccc(F)cc5)c4=O)cn3)c2cc1OC` [Compound 29, N-(6-((6,7-dimethoxyquinolin-4-yl)oxy)pyridin-3-yl)-1-isopropyl-4-oxo-5-para-fluorophenyl-1,4-dihydropyridazine-3-carboxamide], the IC50 was determined as 12 nM.

With `COc1cc2nccc(Oc3ccc(NC(=O)c4nn(C5CC5)cc(-c5ccc(F)cc5)c4=O)nc3)c2cc1OC` [Compound 31], the midpoint of inhibition, the IC50, lay at 7 nM. `COc1cc2nccc(Oc3ccc(NC(=O)c4cn(C(C)C)nc(-c5ccc(F)cc5)c4=O)cn3)c2cc1OC` [Compound 38, N-(6-((6,7-dimethoxyquinolin-4-yl)oxy)pyridin-3-yl)-6-para-fluorophenyl-2-isopropyl-5-oxo-2,5-dihydropyridazine-4-carboxamide] showed an IC50 of 93 nM. `COc1cc2nccc(Oc3ccc(NC(=O)c4nn(C5CC5)cc(-c5ccc(F)cc5)c4=O)cn3)c2cc1OC` [Compound 36] had a concentration for half-maximal inhibition (IC50) of 7 nM. Turning to `COc1cc2nccc(Oc3cnc(NC(=O)c4cn(C(C)C)nc(-c5ccc(F)cc5)c4=O)nc3)c2cc1OC` [Compound 39, N-(5-((6,7-dimethoxyquinolin-4-yl)oxy)pyrimidine-2-yl)-6-(4-fluorophenyl)-2-isopropyl-5-oxo-2,5-dihydropyridazine-4-carboxamide], the IC50 amounted to 36 nM. Regarding `COc1cc2nccc(Oc3ccc(NC(=O)c4cn(C(C)C)cc(-c5ccc(C)cc5)c4=O)nc3)c2cc1OC` [Compound 1, N-(5-((6,7-dimethoxyquinolin-4-yl)oxy)pyridin-2-yl)-1-isopropyl-4-oxo-5-p-tolyl-1,4-dihydropyridin-3-carboxamide], half-maximal inhibition (IC50) required 29 nM.

For the origin of these results see patent US20220073496A1, “NOVEL QUINOLINE DERIVATIVE INHIBITOR” (Nanjing Transthera Biosciences Co., Ltd., priority 2018, published 2022).
